Test results reported in PubChem BioAssay AID1963844 (Molecular Pharmacology Branch, DTP, NCI, 2024).
Several values for one entry are separate records, joined by “and”; a condition that tells them apart may be missing. Equal entries are not always repeated.

Tested on: 422866-222-R5-J1-PDC complex spheroid viability
Test: Anticancer human tumor 422866-222-R5-J1-PDC patient-derived pancreatic adenocarcinoma cell line growth inhibition [POLQ]
Conditions: for viability, T/C: stronger effect = lower value
Procedure: Multicellular complex tumor spheroid response to Polymerase (POL) inhibitors (novobiocin, ART-558, RP6685) in combination with a variety of drugs and investigational agents in selected tumor cell lines
The POL inhibitors (novobiocin, ART-558, and RP6685) were evaluated both individually and in combination with standard of care and investigational anticancer small molecules within a complex spheroid model of solid tumors. . Complex spheroids include a stromal component modeled by human endothelial cells (HUVEC) and fibroblasts modeled by human mesenchymal stem cells (MSCs). The concentration ranges selected for each drug and investigational agent were based upon clinically achievable concentrations if the clinical Cmax of the agent was known.
Compounds. The drugs and investigational agents: novobiocin (NSC847541), ART-558 (NSC835418), RP-6685 (NSC848927), peposertib (NSC802822), ceralasertib (NSC780249), elimusertib (NSC800525), camonsertib (NSC841442), AZD-1390 (NSC803789), olaparib (NSC753686), talazoparib (NSC767125), rucaparib (NSC756644), sotorasib (NSC818433), MRTX-1133 (NSC836407), SN-38 (NSC673596), topotecan (NSC609699), epotoside (NSC141540), doxorubicin (NSC123127), gemcitabine (NSC613327), 5-fluorouracil (NSC19893), paclitaxel (NSC125973), vemurafenib (NSC761431), MSA-2 (NSC828583), SN-011 (NSC837082), adavosertib (NSC754352), prexasertib (NSC758257), carboplatin (NSC241240) and oxaliplatin (NSC266046), were obtained from the National Cancer Institute (NCI) Developmental Therapeutics Program Chemical Repository (21). The FDA-approved anticancer drug set is available from the Developmental Therapeutics Program at https://dtp.cancer.gov/organization/dscb/obtaining/. […] The stock solutions were prepared in dimethyl sulfoxide (DMSO, Sigma-Aldrich, St. Louis, MO, cat. D2650), except for the platinum compounds which were prepared in saline (Quality Biological, Gaithersburg, MD, cat. 114-055-101), at 800-fold the tested concentration and stored at -70 degrees C prior to their use. All drugs and investigational agents were tested over a range starting from a high concentration at or near the clinical Cmax and decreasing in half-log increments. If the clinical Cmax for an agent had not been determined, the highest concentration tested was 10 microM, except for SN-38, which was tested at a high concentration of 1 microM.
Cell Culture. All cells were maintained in an incubator at 37 degrees C and 5% CO2 with 95% humidity. The PDC lines were cultured according to standard operating procedures established by the NCI PDMR (https://pdmr.cancer.gov). Table 3 of the manuscript, lists the cell lines along with the number of the three cell types plated to form the mct-spheroids and media for tumor cell growth. After thawing, all PDC lines, except 997537-175-T-J1-PDC and 415267-285-R-J2-PDC, were cultured in Matrigel-coated flasks prepared with a working solution of 1X Ham's F-12 nutrient mix, without supplementation (Thermo Fisher Scientific, cat. 11765054), 100 U/mL penicillin-streptomycin (Thermo Fisher Scientific, cat. 15140122), and 2.5% Matrigel (Corning Inc., Corning, NY, cat. 354248) for the first three passages. The two PDC lines 997537-175-T-J1-PDC and 415267-285-R-J2-PDC were cultured on uncoated flasks. The 857933-349-R-J2-PDC line was cultured in 6C/Colon 1B media containing advanced DMEM/F-12 (Thermo Fisher Scientific, cat. 12634028), 10 mM HEPES (Thermo Fisher Scientific, cat. 15630080), 1X GlutaMAX supplement (Thermo Fisher Scientific, cat. 35050061), 0.1 mg/mL primocin (InvivoGen, San Diego, CA, cat. ant-pm-2), 10% defined fetal bovine serum, heat inactivated (HyClone Laboratories Inc., Logan, UT, cat. SH30070.03HI), 50% L-WRN conditioned media (ATCC, cat. CRL-3276), 1.25 mM N-Acetyl-L-cysteine (Sigma-Aldrich, cat. A9165), 10 mM nicotinamide (Sigma-Aldrich, cat. N0636), 1X B-27 supplement (Thermo Fisher Scientific, cat. 17504044), 1X N-2 supplement (Thermo Fisher Scientific, cat. […]

[1] = curve of first compound, second compound 0.0316 µM
[2] = curve of first compound, second compound 0.1 µM
[3] = curve of first compound, second compound 0.316 µM
[4] = curve of first compound, second compound 1 µM
[5] = curve of first compound, second compound 3.16 µM
[6] = curve of first compound, second compound 10 µM
[7] = second compound 0.0316 µM, first compound 0.0316 µM
[8] = second compound 0.0316 µM, first compound 0.1 µM
[9] = second compound 0.0316 µM, first compound 0.316 µM
[10] = second compound 0.0316 µM, first compound 1 µM
[11] = second compound 0.0316 µM, first compound 3.16 µM
[12] = second compound 0.0316 µM, first compound 10 µM
[13] = second compound 0.1 µM, first compound 0.0316 µM
[14] = second compound 0.1 µM, first compound 0.1 µM
[15] = second compound 0.1 µM, first compound 0.316 µM
[16] = second compound 0.1 µM, first compound 1 µM
[17] = second compound 0.1 µM, first compound 3.16 µM
[18] = second compound 0.1 µM, first compound 10 µM
[19] = second compound 0.316 µM, first compound 0.0316 µM
[20] = second compound 0.316 µM, first compound 0.1 µM
[21] = second compound 0.316 µM, first compound 0.316 µM
[22] = second compound 0.316 µM, first compound 1 µM
[23] = second compound 0.316 µM, first compound 3.16 µM
[24] = second compound 0.316 µM, first compound 10 µM
[25] = second compound 1 µM, first compound 0.0316 µM
[26] = second compound 1 µM, first compound 0.1 µM
[27] = second compound 1 µM, first compound 0.316 µM
[28] = second compound 1 µM, first compound 1 µM
[29] = second compound 1 µM, first compound 3.16 µM
[30] = second compound 1 µM, first compound 10 µM
[31] = second compound 3.16 µM, first compound 0.0316 µM
[32] = second compound 3.16 µM, first compound 0.1 µM
[33] = second compound 3.16 µM, first compound 0.316 µM
[34] = second compound 3.16 µM, first compound 1 µM
[35] = second compound 3.16 µM, first compound 3.16 µM
[36] = second compound 3.16 µM, first compound 10 µM
[37] = second compound 10 µM, first compound 0.0316 µM
[38] = second compound 10 µM, first compound 0.1 µM
[39] = second compound 10 µM, first compound 0.316 µM
[40] = second compound 10 µM, first compound 1 µM
[41] = second compound 10 µM, first compound 3.16 µM
[42] = second compound 10 µM, first compound 10 µM
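Note: spheroids exposed to compounds for one week before readout.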
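Throughout, for viability, T/C: percent of DMSO vehicle wells luminescence so 100% = untreated viability.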

`CNCc1ccc(-c2[nH]c3cc(F)cc4c3c2CCNC4=O)cc1` + Cc1cccc(N(C)C(=O)C2C(O)CCN2c2nc(C)cc(C(F)(F)F)c2C#N)c1 was tested, and the IC50 [1] was greater than 10 µM, the IC50 [2] was greater than 10 µM and the IC50 [3] was greater than 10 µM. The IC50 [4] was greater than 10 µM, the IC50 [5] was greater than 10 µM and the IC50 [6] was greater than 10 µM. It also gave a viability, T/C [7] of 105%, a viability, T/C [8] of 88.9% and a viability, T/C [9] of 91.2%. For the same compound, the viability, T/C [10] was 99.3%, the viability, T/C [11] was 89.6% and the viability, T/C [12] was 85.5%. The viability, T/C [13] was 94.8%, the viability, T/C [14] was 86.7% and the viability, T/C [15] was 85.6%. The viability, T/C [16] was 86%, the viability, T/C [17] was 101% and the viability, T/C [18] was 108%. The viability, T/C [19] was 88.3%, the viability, T/C [20] was 97.1% and the viability, T/C [21] was 88%. It also gave a viability, T/C [22] of 85%, a viability, T/C [23] of 80.9% and a viability, T/C [24] of 89.6%. For the same compound, the viability, T/C [25] was 103%, the viability, T/C [26] was 85.6% and the viability, T/C [27] was 93.3%. The viability, T/C [28] was 85.3%, the viability, T/C [29] was 86.7% and the viability, T/C [30] was 89.7%. The viability, T/C [31] was 96.4%, the viability, T/C [32] was 83.9% and the viability, T/C [33] was 87.6%. It also gave a viability, T/C [34] of 80.8%, a viability, T/C [35] of 79.8% and a viability, T/C [36] of 87.3%. For the same compound, the viability, T/C [37] was 102%, the viability, T/C [38] was 107% and the viability, T/C [39] was 88%. The viability, T/C [40] was 76.6%, the viability, T/C [41] was 85.8% and the viability, T/C [42] was 67.1%.
`CCCS(=O)(=O)Nc1ccc(F)c(C(=O)c2c[nH]c3ncc(-c4ccc(Cl)cc4)cc23)c1F` + COC1C(OC(N)=O)C(O)C(Oc2ccc3c(O)c(NC(=O)c4ccc(O)c(CC=C(C)C)c4)c(=O)oc3c2C)OC1(C)C was tested, and the IC50 [1] was greater than 10 µM, the IC50 [2] was greater than 10 µM and the IC50 [3] was greater than 10 µM. For the same compound, the IC50 [4] was greater than 10 µM, the IC50 [5] was greater than 10 µM and the IC50 [6] was greater than 10 µM. The viability, T/C [7] was 96.1%, the viability, T/C [8] was 129% and the viability, T/C [9] was 132%. For the same compound, the viability, T/C [10] was 162%, the viability, T/C [11] was 236% and the viability, T/C [12] was 99%. It also gave a viability, T/C [13] of 119%, a viability, T/C [14] of 118% and a viability, T/C [15] of 143%. It also gave a viability, T/C [16] of 149%, a viability, T/C [17] of 198% and a viability, T/C [18] of 86.6%. It also gave a viability, T/C [19] of 98.2%, a viability, T/C [20] of 97.8% and a viability, T/C [21] of 129%. It also gave a viability, T/C [22] of 177%, a viability, T/C [23] of 173% and a viability, T/C [24] of 107%. The viability, T/C [25] was 101%, the viability, T/C [26] was 114% and the viability, T/C [27] was 129%. The viability, T/C [28] was 167%, the viability, T/C [29] was 217% and the viability, T/C [30] was 90.6%. The viability, T/C [31] was 101%, the viability, T/C [32] was 115% and the viability, T/C [33] was 129%. The viability, T/C [34] was 173%, the viability, T/C [35] was 195% and the viability, T/C [36] was 111%. It also gave a viability, T/C [37] of 93.9%, a viability, T/C [38] of 121% and a viability, T/C [39] of 145%. For the same compound, the viability, T/C [40] was 161%, the viability, T/C [41] was 198% and the viability, T/C [42] was 93.4%.
In the case of `C#Cc1c(F)ccc2cc(O)cc(-c3ncc4c(N5CC6CCC(C5)N6)nc(OCC56CCCN5CC(F)C6)nc4c3F)c12` (stereo unspecified), the viability, T/C (compound 0.0316 µM) is reported as 93% and 91.1% and 102%, the viability, T/C (compound 0.1 µM) is reported as 80.5% and 89.6% and 83.2% and the viability, T/C (compound 0.316 µM) is reported as 60.1% and 59.7% and 68.7%. The viability, T/C (compound 1 µM) was 44% and 50.6% and 51.8%, the viability, T/C (compound 3.16 µM) was 33.9% and 34.4% and 34.3% and the viability, T/C (compound 10 µM) was 26.9% and 24.2% and 26%. The IC50 (curve of compound) was 0.666 µM and 0.869 µM and 1.06 µM.
